Experimental data as given in US12509451B2, “Heteroaryl amide inhibitors of CD38” (NAPA THERAPEUTICS LTD., priority 2020, dated 2025).
Each block holds one compound with its values, some of them ahead of it.

What was measured:
CD38 [1] = molecular target: T1, CD38 (Mus musculus, UniProt P56528); assay: In vivo efficacy against CD38 in aged mice, BID for 5 days, liver NAD+ metabolites; conditions: 3 hr post-dosing
T1 construct: aged mice (male C57BL6/J, 22 months old) were fasted for 4 hr; from tissue; host or cells: C57BL6/J mice (aged, DIO obese or LPS-challenged); liver, spleen, plasma
T1 sequence (P56528 1-304): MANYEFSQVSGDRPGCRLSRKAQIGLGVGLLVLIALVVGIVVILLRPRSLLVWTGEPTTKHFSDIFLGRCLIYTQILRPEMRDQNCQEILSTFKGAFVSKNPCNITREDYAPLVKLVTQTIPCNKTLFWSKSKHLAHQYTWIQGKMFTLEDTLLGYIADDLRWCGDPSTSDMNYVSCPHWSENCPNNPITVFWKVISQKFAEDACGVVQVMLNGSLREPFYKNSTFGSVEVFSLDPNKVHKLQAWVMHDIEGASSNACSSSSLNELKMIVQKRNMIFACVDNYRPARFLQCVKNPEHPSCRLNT
Experimental: (§1) The in vivo efficacy of Compound 32 against the human CD38 enzyme was tested in aged mice after oral administration and determined by mass spec (MS) analysis of NAD+ metabolites levels in liver tissue. The two main CD38 substrates, NAD+ and NMN, and the 2 main byproducts of the CD38 enzymatic reaction, NAM and ADPR, were measured.
(§2) Compound 32 was administered to aged mice (male DIO C57BL6/J, 19-22 months old) via oral gavage at a concentration of 3 mg/kg and 10 mg/kg BID for 5 days. At day 5, mice were humanely euthanized for liver tissue harvesting 3 hr post-dosing. A vehicle control (DMSO: Solutol HS 15: 80% Captisol (20% in water)(5:15:80 v/v)) was included to assess baseline NAD+ metabolites levels.
(§3) The procedure for tissue sample preparation and UPLC-MS/MS methods were adapted from Trammell et al. (2013) Compu. Struct. Biotechnol. J. […] (https://www.ncbi.nlm.nih.gov/pmc/articles/PMC3962138/). Frozen liver tissue was pulverized and resuspended in the extraction buffer (3:1 ethanol:10 mM aq. HEPES, pH 7.1). The samples were vortexed, sonicated briefly in a bath sonicator, and shaken at 55° C. for 3 min at 1,200 rpm. Samples were then centrifuged at 16,000×g for 10 min at 4° C., and the supernatant was dried by speedvac. The dried pellet was resuspended in 97% 10 mM ammonium acetate/3% acetonitrile, centrifuged at 16,000×g for 10 min at 4° C. and 2 μL was injected for LCMS analysis.
(§4) The UPLC-MS/MS analysis to measure NAD+ metabolites was performed using a Vanquish UHPLC system and a Q Exactive Orbitrap mass spectrometer with H-ESI ion source both from Thermo Scientific. UPLC separation was performed on a Hypercarb (2.1×100 mm, 5 μm particle size, Thermo) column following the method described in Trammell et al. (2013). Acquisition was carried out in positive ion, Parallel Reaction Monitoring (PRM) mode and targeted […] (t-SIM). The Thermo Xcalibur QualBrowser system (version 4.2.47) and Freestyle (version 1.8.51.0) softwares was used for the data processing. For relative fold change, peak areas were normalized with respective internal standards, normalized to weight of the tissue sample used, and calculated as fold change relative at 0 h timepoint/vehicle group.
as §1, with “39” for “32”, “spec” for “spec (MS)”
as §2, with “39” for “32”, “of” for “of 3 mg/kg and”

CD38 [2] = molecular target: T1, CD38; assay: In vivo efficacy against CD38 in obese mice, acute oral administration, liver NAD+ metabolites
CD38 [3] = molecular target: T1, CD38; assay: In vivo efficacy against CD38 in obese mice, chronic oral administration 49 days, liver NAD+ metabolites; conditions: 10 mg/kg BID oral, 4 hr post-dosing
Experimental: as §1, with “obese” for “aged”
(§5) Obese mice (male DIO C57BL6/J, 65 weeks old) treated for 49 days with compound 32 via oral gavage at a concentration of 10 mg/kg BID. On day 49, mice were humanely euthanized for liver tissue harvesting at 4 hr post-dosing. A vehicle control (1% Methylcellulose) was included to assess baseline NAD+ metabolites levels.
as §3, §4
as §1, with “39” for “32”, “obese” for “aged”, “spec” for “spec (MS)”
as §5, with “39” for “32”

[4] = single 10 mg/kg oral dose, 1 hour post administration
[5] = single 1 mg/kg and 10 mg/kg oral dose

ADPR levels in liver (CD38 [1]; 3 mg/kg and 10 mg/kg BID oral): decrease | NAD+ levels in liver (CD38 [1]; 3 mg/kg and 10 mg/kg BID oral): significantly increase | NAM levels in liver (CD38 [1]; 3 mg/kg and 10 mg/kg BID oral): decrease | NMN levels in liver (CD38 [1]; 3 mg/kg and 10 mg/kg BID oral): significantly increase | ADPR levels in liver (CD38 [2]; single 3 mg/kg oral dose): decrease | NAD+ levels in liver (CD38 [2]; single 3 mg/kg oral dose): increase | NAM levels in liver (CD38 [2]; single 3 mg/kg oral dose): decrease | NMN levels in liver (CD38 [2]; single 3 mg/kg oral dose): increase | ADPR levels in liver (CD38 [2]; [4]): decrease | NAD+ levels in liver (CD38 [2]; [4]): remarkably increase | NAM levels in liver (CD38 [2]; [4]): decrease | NMN levels in liver (CD38 [2]; [4]): remarkably increase | ADPR levels in liver (CD38 [3]): significantly decrease | NAM levels in liver (CD38 [3]): significantly decrease
Compound: O=C(Nc1ccnc(C(F)(F)F)c1)c1cc(OC2CC2)cc(-n2ccnc2)n1 [Compound 32, 4-cyclopropoxy-6-(1H-imidazol-1-yl)-N-(2-(trifluoromethyl)pyridin-4-yl)picolinamide]

ADPR levels in liver (CD38 [1]; 10 mg/kg BID oral): decrease | NAD+ levels in liver (CD38 [1]; 10 mg/kg BID oral): increase | NAM levels in liver (CD38 [1]; 10 mg/kg BID oral): decrease | ADPR levels in liver (CD38 [2]; [5]): decrease | NAD+ levels in liver (CD38 [2]; [5]): increase | NAM levels in liver (CD38 [2]; [5]): decrease | NMN levels in liver (CD38 [2]; [5]): increase | ADPR levels in liver (CD38 [3]): decrease | NAD+ levels in liver (CD38 [3]): significantly increase | NAM levels in liver (CD38 [3]): decrease | NMN levels in liver (CD38 [3]): significantly increase
Compound: COCCOc1cc(C(=O)Nc2ccnc(C(F)(F)F)c2)nc(-n2ccnc2)n1 [Compound 39, 2-(1H-imidazol-1-yl)-6-(2-methoxyethoxy)-N-(2-(trifluoromethyl)pyridin-4-yl)pyrimidine-4-carboxamide]
